# Test results taken from patent US20090130171A1, “High concentration gentian violet containing medical devices and methods of making same” (priority 2007, published 2009).
# Experiments:
# [1] = Decolorization of GV: photo-oxidation with H2O2 under UV light (Protocol 1); type: physicochemical; details: 0.1% GV in 3% H2O2 and agar stain
# Method: (§1) Protocol 1. Photo-oxidation of GV with H2O2 • 1.1. 0.15 g GV (0.1% w/v) was dissolved in 150 ml 3% H2O2. The solution was exposed to UV light (Bio-lab hood) for 2 hours. 5 ml of solution was extracted out, in increments of 5 mins. • 1.2. 10 μl of 0.1% GV in DI water was spiked onto a plated agar plate. After staining of the agar plate (evaporation of most of the water from the spiked drop), H2O2 was pipetted onto the stain in increments of 50 μl every 5 mins for 2 hours, under the UV light. Protocol 2. Oxidation of GV by activation of H2O2 with Ag • 2.1. 10.6 mg of nano-particle Silver was mixed into 40 ml 3% H2O2 with constant stirring. 0.1% GV in water was added at various increments (10 μl-1 ml) until purple color persisted. Molar concentration ratios (GV:Ag) were calculated to determine the molar ratio where GV is no longer oxidized. • 2.2 10 μl of 0.1% GV in DI water was spiked onto a plated agar plate. After staining of the agar plate (evaporation of most of the water from the spiked drop), 0.009 g of Ag was applied to the surface of the stain and 100 μl of H2O2 was pipette onto the Ag. Protocol 3. Oxidation of GV by activation of H2O2 with Vitamin C 1% Vitamin C (w/v) was dissolved in 100 ml 3% H2O2. 7 g of TRIS buffer was also dissolved in the H2O2. 0.1% GV in water was added at increments of 10 μl until the purple color persisted.
# [2] = Decolorization of GV: activation of H2O2 with Vitamin C (Protocol 3); type: physicochemical; details: 1% Vitamin C in 3% H2O2, TRIS, pH 6-7, first 10 μl of 0.1% GV
# Method: as §1
# [3] = type: physicochemical; details: 0.5 %
# Method: Compounding Conditions for stable gentian violet:
# Barrel Temperatures: • Zone 1-5=170° C. • Zone 6=175° C.,
# Compounding Temperature for degraded gentian violet:
# Compounding was performed with Sigma Aldrich ACS grade gentian violet, lot 016K3691. HPLC analysis was performed by cutting and measuring 1 cm segments of each formulation (n=3) using the method described in Examples I and II.
# The chromatograms in FIGS. 5-10 show the stable gentian violet followed by the degraded gentian violet, at 588 nm, 253 nm, and 280 nm. The degradation peaks from the 217° C. sample are evident as the new peaks at 253 and 280 nm wavelengths. The chromatogram of the low processing temperature was identical to that of the Gentian Violet raw material.
# [4] = Decolorization of GV: activation of H2O2 with nano-particle silver (Protocol 2); type: physicochemical
# Method: as §1
compound,measurement,setting,value
CN(C)c1ccc(C(=C2C=CC(=[N+](C)C)C=C2)c2ccc(N(C)C)cc2)cc1 [gentian violet],color change of GV,[1],No color change
same,color of solution after GV addition,[2],remained purple
same,processing temperature at which extruded gentian violet degrades,[3],217 °C
same,color change of GV solution,[4]; 0.1% GV pipetted into Ag + 3% H2O2 solution,fade to a faint yellow color
same,color change of GV stain on agar,"[4]; 10 μl 0.1% GV stain, Ag + 100 μl H2O2",turn to a faint yellow color after 10 mins
